These results are taken from patent publication US7803930B2, “Antisense modulation of apolipoprotein B-expression” (Isis Pharmaceuticals, Inc., priority 2002, dated 2010).

The nature of data set [1]: Lean mice, 6 weeks (Example 66): serum lipids and liver enzymes. The format is in vivo, mouse. Particulars: for HDL-cholesterol / LDL-cholesterol / Liver Enzymes ALT / Liver Enzymes AST / Total cholesterol / Triglycerides: serum. The protocol: The accumulation of lipids in liver tissue was also evaluated in lean mice. Male […] mice (Charles River Laboratories (Wilmington, Mass.) at 6 to 7 weeks of age were maintained on a standard rodent diet and were treated twice weekly with intraperitoneal injections of 25 or 50 mg/kg 147764 (SEQ ID NO: 109) or 147483 (SEQ ID NO: 79) for 6 weeks. Saline treated animals served as controls. Each treatment group was comprised of 4 animals. Animals were sacrificed after the 6 week treatment period, at which point liver tissue and serum were collected.
Total cholesterol, LDL-cholesterol, HDL-cholesterol and triglycerides in serum were measured by routine clinical analysis using an Olympus Clinical Analyzer (Olympus America Inc., Melville, N.Y.). The liver enzymes ALT and […] in serum were also measured using the Olympus Clinical Analyzer.

For data set [2], the system named is liver gene expression profile; lipid metabolism genes. The data set is described as follows: Microarray and real-time PCR analysis of liver gene expression in lean versus high-fat fed mice (Example 65). The format is in vivo, mouse. The note with it: high fat fed C57Bl/6 mice. The protocol: Male C57Bl/6 mice were divided into the following groups, consisting of 5 animals each: (1) mice on a lean diet, injected with saline (lean control); (2) mice on a high fat diet; (3) mice on a high fat diet injected with 50 mg/kg of the control oligonucleotide 141923 (SEQ ID NO: 858); (4) mice on a high fat diet given 20 mg/kg atorvastatin calcium (Lipitor®, Pfizer Inc.); (5) mice on a high fat diet injected with 10, 25 or 50 mg/kg ISIS 147764 (SEQ ID NO: 109). Saline and oligonucleotide treatments were administered intraperitoneally twice weekly for 6 weeks. Atorvastatin was administered daily for 6 weeks. At study termination, liver samples were isolated from each animal and RNA was isolated for Northern blot qualitative assessment, DNA microarray and quantitative real-time PCR. Northern blot assessment and quantitative real-time PCR were performed as described by other examples herein.
For DNA microarray analysis, hybridization samples were prepared from 10 μg of total RNA isolated from each mouse liver according to the Affymetrix Expression Analysis Technical Manual (Affymetrix, Inc., Santa Clara, Calif.). […] Signal values for each probe set were calculated using the Affymetrix Microarray Suite v5.0 software (Affymetrix, Inc., Santa Clara, Calif.). […]

A short description of data set [3]: High fat fed C57BL/6 mice, 6 week timecourse: serum AST and ALT levels. The format is in vivo, mouse. Particulars: for ALT levels: 6 weeks (saline control 25 IU/L); for AST levels: 6 weeks (saline control 65 IU/L). The protocol: Male C57BL/6 mice (n=8) receiving a high fat diet (60% kcal fat) were evaluated over the course of 6 weeks for the effects of ISIS 147764 on liver enzyme (AST and ALT) levels. Increased levels of the liver enzymes ALT and AST indicate toxicity and liver damage. Control animals received saline treatment (50 mg/kg). […] AST and ALT levels were measured at 6 weeks.

The subject of a further data set is apolipoprotein B mRNA. Nature of the data set: Long-term study in lean Cynomolgous monkeys (Example 64): apolipoprotein B mRNA in liver. The format is in vivo, Cynomolgous monkey. Particulars: for apolipoprotein B expression % change normalized to saline: liver, one month. The protocol:
Male and female Cynomologous monkeys are treated with 2, 4 or 12 mg/kg of ISIS 301012 intravenously or 2 or 20 mg/kg subcutaneously at a frequency of every two days for the first week, and every 4 days thereafter, for 1 and 3 month treatment periods. Saline-treated animals serve as controls. Each treatment group includes 2 to 3 animals of each sex.
At a one month interval and at the 3 month study termination, the animals are sacrificed and evaluated for target expression in liver, lipid levels in serum and indicators of toxicity. Liver samples are procured, RNA is isolated and apolipoprotein B mRNA expression is measured by real-time PCR as described in other examples herein. Serum lipids, including total cholesterol, LDL-cholesterol, HDL-cholesterol and triglycerides, are evaluated by routine clinical analysis using an Olympus Clinical Analyzer (Olympus America Inc., Melville, N.Y.). Ratios of LDL-cholesterol to HDL-cholesterol and total cholesterol to HDL-cholesterol are also calculated. Analyses of serum ALT and AST, inflammatory infiltrates in tissue and basophilic granules in tissue provide an assessment of toxicities related to the treatment. Hepatic steatosis, or accumulation of lipids in the liver, is assessed by routine histological analysis with oil red 0 stain and measurement of liver tissue triglycerides using a Triglyceride GPO Assay (Sigma-Aldrich, St. Louis, Mo.).
The results from the one month interval of the long term treatment are shown in Table 50 and are normalized to saline-treated animals for mRNA and to untreated baseline values for lipid levels. Total cholesterol, LDL-cholesterol, HDL-cholesterol, LDL particle concentration and triglyceride levels in serum were measured by nuclear magnetic resonance spectroscopy by Liposcience (Raleigh, N.C.). Additionally, the concentration of intact oligonucleotide in liver was measured by capillary gel electrophoresis and is presented as micrograms of oligonucleotide per gram of liver tissue. Each result represents the average of data from 4 animals (2 males and 2 females).
In a similar experiment, male and female Cynomolgous monkeys received an intravenous dose of ISIS 301012 at 4 mg/kg, every two days for the first week and every 4 days thereafter. Groups of animals were sacrificed after the first dose and the fourth dose, as well as 11, 15 and 23 days following the fourth and final dose. Liver RNA was isolated and apolipoprotein B mRNA levels were evaluated by real-time PCR as described herein. […] Furthermore, after 4 doses of ISIS 301012 at 4 mg/kg, target mRNA was reduced by approximately 85% and a 50% reduction in target mRNA was sustained for up to 16 days following the cessation of antisense oligonucleotide treatment.

As to “GTCCCTGAAGATGTCAATGC (2'-MOE gapmer, further chemistry not given here) [ISIS 147764]”, in data set [1] (25 or 50 mg/kg i.p. twice weekly), the “serum lipids relative to saline-treated control animals” value was “lowers serum lipids”. For the same substance, in data set [1] (25 mg/kg i.p. twice weekly), the HDL-cholesterol was 79 mg/dL, the LDL-cholesterol turned out to be 29 mg/dL, the “Liver Enzymes ALT” value turned out to be 47 IU/L and the “Liver Enzymes AST” value is reported as 81 IU/L. In data set [1] (25 mg/kg i.p. twice weekly), the Total cholesterol is given as 114 mg/dL and the Triglycerides was 80 mg/dL. Also, in data set [1] (50 mg/kg i.p. twice weekly), the HDL-cholesterol is reported as 38 mg/dL, the LDL-cholesterol is recorded as 18 mg/dL, the “Liver Enzymes ALT” value came to 48 IU/L and the “Liver Enzymes AST” value was determined as 101 IU/L. In data set [1] (50 mg/kg i.p. twice weekly), this substance displayed a Total cholesterol of 57 mg/dL and a Triglycerides of 30 mg/dL. The “mRNA expression of lipid metabolism genes (hepatic lipase, fatty acid synthase, ABCD2, FABP2, stearol CoA desaturase-1, HMG CoA reductase), real-time PCR” value in data set [2] was “reduction in mRNA expression”. Besides, the “liver gene expression profile (microarray)” value in data set [2] (10, 25 or 50 mg/kg i.p. twice weekly, 6 weeks) was “drives the gene expression profile in high fat fed mice to the profile observed in lean mice”. In data set [3] (5 mg/kg), this substance had an ALT levels of 50 IU/L and an AST levels of 105 IU/L. In data set [3] (25 mg/kg), this substance yielded an ALT levels of 70 IU/L and an AST levels of 70 IU/L. In data set [3] (50 mg/kg), this substance showed an ALT levels of 100 IU/L and an AST levels of 80 IU/L.

In the case of “ISIS 301012: SEQ ID NO: 247, antisense oligonucleotide targeted to human apolipoprotein B (antisense GCCTCAGTCTGCTTCGCACC; chemistry not given here)”, the “reduction in target mRNA in liver” value in the data set with apolipoprotein B mRNA (Cynomolgous monkeys, after 4 doses at 4 mg/kg i.v.) is recorded as “approximately 85%”. In addition, the “reduction in apolipoprotein B mRNA expression in liver” value in the data set with apolipoprotein B mRNA (Cynomolgous monkeys, single intravenous dose of 4 mg/kg) is listed as 40%. Moreover, in the data set on apolipoprotein B mRNA (Cynomolgous monkeys, up to 16 days following cessation of treatment (4 doses, 4 mg/kg)), the “reduction in target mRNA in liver sustained after cessation” value was found to be 50%. Moreover, in the data set on apolipoprotein B mRNA (lean Cynomolgous monkeys, one month interval), the “apolipoprotein B expression” value is listed as “inhibits apolipoprotein B expression in a dose-dependent manner”. The “apolipoprotein B expression % change normalized to saline” value in the data set with apolipoprotein B mRNA (lean Cynomolgous monkeys, intravenous 2 mg/kg) is reported as −45%; in the data set on apolipoprotein B mRNA (lean Cynomolgous monkeys, intravenous 4 mg/kg), −76%; in the data set with apolipoprotein B mRNA (lean Cynomolgous monkeys, intravenous 12 mg/kg) it was −96%; with apolipoprotein B mRNA (lean Cynomolgous monkeys, subcutaneous 20 mg/kg), −94%.
